Assay results: US11739098B2 (BRISTOL-MYERS SQUIBB COMPANY, priority 2017, dated 2023)

Experiments:
Assay type in all cases: cell-based
human TLR7 = target: T1, human TLR7 (Homo sapiens, UniProt Q9NYK1); experiment: TLR7 inhibition reporter assay (HEK-Blue cells, SEAP reporter, gardiquimod stimulation); conditions: HEK-Blue cells overexpressing human TLR7, SEAP reporter, gardiquimod 7.5 μM
T1 construct: host or cells: HEK-Blue cells (HEK293-derived reporter line)
T1 sequence (Q9NYK1 27-1049): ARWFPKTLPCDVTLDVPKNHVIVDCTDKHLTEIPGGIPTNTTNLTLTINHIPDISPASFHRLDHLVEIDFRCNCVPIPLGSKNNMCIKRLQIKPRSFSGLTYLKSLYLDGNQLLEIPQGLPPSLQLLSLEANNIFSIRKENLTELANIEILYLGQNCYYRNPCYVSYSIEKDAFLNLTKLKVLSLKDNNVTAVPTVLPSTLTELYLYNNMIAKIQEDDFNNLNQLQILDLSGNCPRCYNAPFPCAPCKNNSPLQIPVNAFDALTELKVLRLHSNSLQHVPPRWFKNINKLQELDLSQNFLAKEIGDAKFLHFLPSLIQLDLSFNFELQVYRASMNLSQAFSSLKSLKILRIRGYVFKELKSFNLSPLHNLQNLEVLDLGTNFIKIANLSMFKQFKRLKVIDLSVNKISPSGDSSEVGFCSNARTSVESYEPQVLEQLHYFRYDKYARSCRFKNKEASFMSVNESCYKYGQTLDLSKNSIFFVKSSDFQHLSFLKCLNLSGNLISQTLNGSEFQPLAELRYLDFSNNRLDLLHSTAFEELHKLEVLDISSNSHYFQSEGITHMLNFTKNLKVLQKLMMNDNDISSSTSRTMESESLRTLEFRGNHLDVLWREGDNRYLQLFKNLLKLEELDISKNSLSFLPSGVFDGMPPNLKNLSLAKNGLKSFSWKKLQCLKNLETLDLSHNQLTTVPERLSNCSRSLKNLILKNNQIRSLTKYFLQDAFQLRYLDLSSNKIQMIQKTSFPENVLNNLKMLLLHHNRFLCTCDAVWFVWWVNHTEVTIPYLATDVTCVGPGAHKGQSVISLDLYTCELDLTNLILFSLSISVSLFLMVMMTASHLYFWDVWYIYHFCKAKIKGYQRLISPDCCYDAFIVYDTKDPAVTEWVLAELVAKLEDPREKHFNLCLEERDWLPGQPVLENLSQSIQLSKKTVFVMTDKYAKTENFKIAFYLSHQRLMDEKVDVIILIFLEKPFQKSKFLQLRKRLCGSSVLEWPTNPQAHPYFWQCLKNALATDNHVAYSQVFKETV
Method in brief: (§1)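 After 22 h at 37 °C, SEAP secretion was measured from human TLR7-, TLR8- or TLR9-expressing HEK-Blue reporter cells given compound (0.05 nM–50 μM) 30 min before agonist: 7.5 μM gardiquimod, 15.9 μM R848 or 5 nM ODN2006 respectively. Percent inhibition referenced to agonist-plus-DMSO and known-inhibitor wells.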

human TLR8 = target: T2, human TLR8 (Homo sapiens, UniProt Q9NR97); experiment: TLR8 inhibition reporter assay (HEK-Blue cells, SEAP reporter, R848 stimulation); conditions: HEK-Blue cells overexpressing human TLR8, SEAP reporter, R848 15.9 μM
T2 construct: host or cells: HEK-Blue cells (HEK293-derived reporter line)
T2 sequence (Q9NR97 27-1041): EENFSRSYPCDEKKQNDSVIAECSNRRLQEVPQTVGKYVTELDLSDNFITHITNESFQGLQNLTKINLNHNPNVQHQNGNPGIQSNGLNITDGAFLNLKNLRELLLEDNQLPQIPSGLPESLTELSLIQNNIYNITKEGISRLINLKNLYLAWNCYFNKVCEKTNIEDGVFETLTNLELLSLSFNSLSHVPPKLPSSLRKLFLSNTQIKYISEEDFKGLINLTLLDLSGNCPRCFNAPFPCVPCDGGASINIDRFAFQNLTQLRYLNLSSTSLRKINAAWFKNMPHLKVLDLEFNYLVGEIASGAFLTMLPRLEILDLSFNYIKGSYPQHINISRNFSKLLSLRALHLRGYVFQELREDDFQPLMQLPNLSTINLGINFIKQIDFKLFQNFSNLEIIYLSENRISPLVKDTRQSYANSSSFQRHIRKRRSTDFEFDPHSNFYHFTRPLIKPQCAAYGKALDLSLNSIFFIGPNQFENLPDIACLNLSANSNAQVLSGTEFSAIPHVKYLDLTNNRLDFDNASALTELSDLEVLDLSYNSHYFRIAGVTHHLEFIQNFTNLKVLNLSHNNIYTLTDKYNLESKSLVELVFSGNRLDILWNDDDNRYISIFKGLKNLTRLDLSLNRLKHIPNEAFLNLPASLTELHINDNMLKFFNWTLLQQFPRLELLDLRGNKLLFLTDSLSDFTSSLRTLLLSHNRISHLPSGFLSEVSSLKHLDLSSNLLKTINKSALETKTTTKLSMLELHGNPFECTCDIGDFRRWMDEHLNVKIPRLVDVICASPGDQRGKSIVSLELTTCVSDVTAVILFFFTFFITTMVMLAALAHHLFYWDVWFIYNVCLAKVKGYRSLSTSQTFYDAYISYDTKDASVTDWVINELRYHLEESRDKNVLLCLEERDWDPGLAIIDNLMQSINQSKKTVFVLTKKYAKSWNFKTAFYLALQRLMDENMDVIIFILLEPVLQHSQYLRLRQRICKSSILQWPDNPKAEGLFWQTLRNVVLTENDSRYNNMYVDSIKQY
Method in brief: as §1

human TLR9 = target: T3, human TLR9 (Homo sapiens, UniProt Q9NR96); experiment: TLR9 inhibition reporter assay (HEK-Blue cells, SEAP reporter, ODN2006 stimulation); conditions: HEK-Blue cells overexpressing human TLR9, SEAP reporter, ODN2006 5 nM
T3 construct: host or cells: HEK-Blue cells (HEK293-derived reporter line)
T3 sequence (Q9NR96 26-1032): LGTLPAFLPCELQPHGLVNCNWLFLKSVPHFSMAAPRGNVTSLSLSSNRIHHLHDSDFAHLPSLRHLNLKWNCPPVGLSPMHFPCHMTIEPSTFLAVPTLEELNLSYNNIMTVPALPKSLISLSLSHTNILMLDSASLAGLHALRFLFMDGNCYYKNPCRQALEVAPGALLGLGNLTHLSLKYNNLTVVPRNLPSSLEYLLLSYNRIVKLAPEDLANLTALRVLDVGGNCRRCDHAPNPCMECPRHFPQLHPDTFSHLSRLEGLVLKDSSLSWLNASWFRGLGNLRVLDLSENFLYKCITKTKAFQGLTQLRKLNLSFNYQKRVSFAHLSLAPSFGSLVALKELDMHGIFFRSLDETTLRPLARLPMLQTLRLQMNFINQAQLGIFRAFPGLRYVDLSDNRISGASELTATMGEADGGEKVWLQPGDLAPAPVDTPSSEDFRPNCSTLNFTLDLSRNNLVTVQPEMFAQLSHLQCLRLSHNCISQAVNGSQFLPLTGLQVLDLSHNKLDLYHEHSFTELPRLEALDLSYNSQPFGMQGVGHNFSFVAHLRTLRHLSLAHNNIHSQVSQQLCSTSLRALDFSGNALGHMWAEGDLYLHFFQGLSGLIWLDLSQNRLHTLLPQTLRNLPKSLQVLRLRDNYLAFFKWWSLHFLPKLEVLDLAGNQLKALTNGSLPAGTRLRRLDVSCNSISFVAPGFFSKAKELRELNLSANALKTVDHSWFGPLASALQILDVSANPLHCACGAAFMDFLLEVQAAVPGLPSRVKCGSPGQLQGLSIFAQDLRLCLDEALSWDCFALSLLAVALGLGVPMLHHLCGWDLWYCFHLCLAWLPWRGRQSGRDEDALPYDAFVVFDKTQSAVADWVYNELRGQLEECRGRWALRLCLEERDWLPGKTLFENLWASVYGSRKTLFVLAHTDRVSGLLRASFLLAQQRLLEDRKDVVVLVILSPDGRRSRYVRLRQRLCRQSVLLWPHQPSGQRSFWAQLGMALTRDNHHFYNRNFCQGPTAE
Method in brief: as §1

| Structure (SMILES) | IC50 (human TLR7) | IC50 (human TLR8) | IC50 (human TLR9) |
| --- | --- | --- | --- |
| CC(C)c1c(-c2cnc3ccnn3c2)[nH]c2ccc(C3CCN(C(=O)[C@@H]4NCC[C@H]4O)CC3)cc12 [Example 513, ((2R,3R)-3-hydroxypyrrolidin-2-yl)(4-(3-isopropyl-2-(pyrazolo[1,5-a]pyrimidin-6-yl)-1H-indol-5-yl)piperidin-1-yl)methanone] | 1000 to 50000 nM | > 3130 nM | 1000 to 50000 nM |
| Cc1cc(-c2[nH]c3ccc(C4CCN(Cc5ccn(C)n5)CC4)cc3c2C(C)C)cn2nnnc12 [Example 884, 6-(3-isopropyl-5-(1-((1-methyl-1H-pyrazol-3-yl)methyl)piperidin-4-yl)-1H-indol-2-yl)-8-methyltetrazolo[1,5-a]pyridine] | < 100 nM | < 100 nM | 1000 to 50000 nM |
| Cc1cc(-c2[nH]c3ccc(C4CCN(C5CCS(=O)(=O)CC5)CC4)cc3c2C(C)C)cc2cnnn12 [Example 794, 4-(4-(3-isopropyl-2-(7-methyl-[1,2,3]triazolo[1,5-a]pyridin-5-yl)-1H-indol-5-yl)piperidin-1-yl)tetrahydro-2H-thiopyran 1,1-dioxide] | < 100 nM | < 100 nM | 1000 to 50000 nM |
| Cc1cc(-c2[nH]c3ccc(C4CCNCC4)cc3c2C(C)C)cc2[nH]c(=O)oc12 [Example 91, 5-(3-isopropyl-5-(piperidin-4-yl)-1H-indol-2-yl)-7-methylbenzo[d]oxazol-2(3H)-one] | 100 to 1000 nM | 100 to 1000 nM | 100 to 1000 nM |
| Cc1cc(-c2[nH]c3ccc(C4CCN(C5CCOCC5)CC4)cc3c2C(C)C)cc2cccnc12 [Example 704, 6-(3-isopropyl-5-(1-(tetrahydro-2H-pyran-4-yl)piperidin-4-yl)-1H-indol-2-yl)-8-methylquinoline] | < 100 nM | 100 to 1000 nM | 1000 to 50000 nM |
| CC(C)c1c(-c2c[nH]c3ncncc23)[nH]c2ccc(C3CCNCC3)cc12 [Example 13, 5-(3-isopropyl-5-(piperidin-4-yl)-1H-indol-2-yl)-7H-pyrrolo[2,3-d]pyrimidine] | < 100 nM | < 100 nM | 100 to 1000 nM |
| Cc1cc(-c2[nH]c3ccc(C4CCN(CC#N)CC4)cc3c2C(C)C)cn2ccnc12 [Example 951, 2-(4-(3-isopropyl-2-(8-methylimidazo[1,2-a]pyridin-6-yl)-1H-indol-5-yl)piperidin-1-yl)acetonitrile] | < 100 nM | < 100 nM | 100 to 1000 nM |
| CC(C)c1c(-c2ccnc3[nH]ncc23)[nH]c2ccc(C3CCN(C(=O)CNCCCN(C)C)CC3)cc12 [Example 575, 2-((3-(dimethylamino)propyl)amino)-1-(4-(3-isopropyl-2-(1H-pyrazolo[3,4-b]pyridin-4-yl)-1H-indol-5-yl)piperidin-1-yl)ethan-1-one] | < 100 nM | < 100 nM | 100 to 1000 nM |
| CC(C)c1c(-c2coc3cccnc23)[nH]c2ccc(C3CCNCC3)cc12 [Example 20, 3-(3-isopropyl-5-(piperidin-4-yl)-1H-indol-2-yl)furo[3,2-b] pyridine] | > 3130 nM | > 3130 nM | 1000 to 50000 nM |
| CC(C)c1c(-c2cc(C(F)(F)F)c3nccn3c2)[nH]c2ccc(C3CCN(C(=O)CN(C)C)CC3)cc12 [Example 507, 2-(dimethylamino)-1-(4-(3-isopropyl-2-(8-(trifluoromethyl)imidazo[1,2-a]pyridin-6-yl)-1H-indol-5-yl)piperidin-1-yl)ethan-1-one] | < 100 nM | < 100 nM | 100 to 1000 nM |
| CC(C)c1c(-c2ccnc3[nH]ncc23)[nH]c2ccc(C3CCN(C(=O)Cn4ccnc4)CC3)cc12 [Example 565, 2-(1H-imidazol-1-yl)-1-(4-(3-isopropyl-2-(1H-pyrazolo[3,4-b]pyridin-4-yl)-1H-indol-5-yl)piperidin-1-yl)ethan-1-one] | < 100 nM | < 100 nM | 1000 to 50000 nM |
| Cc1cc(-c2[nH]c3ccc(C4CCN(C(=O)CN(C)C)CC4)cc3c2C(C)C)cn2cc(C(=O)N(C)CCO)nc12 [Example 494, 6-(5-(1-(dimethylglycyl)piperidin-4-yl)-3-isopropyl-1H-indol-2-yl)-N-(2-hydroxyethyl)-N,8-dimethylimidazo[1,2-a]pyridine-2-carboxamide] | < 100 nM | < 100 nM | 1000 to 50000 nM |
| CC(C)c1c(-c2cc(CO)c3nccn3c2)[nH]c2ccc(C3CCN(C(=O)CN(C)C)CC3)cc12 [Example 492, 2-(dimethylamino)-1-(4-(2-(8-(hydroxymethyl)imidazo[1,2-a]pyridin-6-yl)-3-isopropyl-1H-indol-5-yl)piperidin-1-yl)ethan-1-one] | < 100 nM | < 100 nM | 100 to 1000 nM |
| CCc1c(-c2cnc3cnccn23)[nH]c2ccc(C3CCNCC3)cc12 [Example 28, 3-(3-ethyl-5-(piperidin-4-yl)-1H-indol-2-yl)imidazo[1,2-a]pyrazine] | 1000 to 50000 nM | 1000 to 50000 nM | 100 to 1000 nM |
